Data: patent US4110626A, “Method for improving the quality of the fragrance of perfumes using aliphatic dibasic acid diesters” (Shiseido Co., Ltd., priority 1976, dated 1978)

Columns and labels:
[1] = Stabilizing effect on octanal (APHA color); type: physicochemical; settings: 37° C, 1 month; original APHA 15; 50% controlling agent added or octanal alone
Experimental: Octanal was selected as a single perfume, and the stabilizing effect of the perfume controlling agent was determined.
Amount of Perfume Controlling Agent: 50% based on the octanal (in the case of both DIBA and DIAA)
Test Temperature and Period: 37° C, one month (checked every week)
Items Evaluated: Acid value (AV), carbonyl value (COV), APHA color
In the test, a 100 ml brown bottle boiled in water for 12 hours was used, and the head space of the bottle was purged with nitrogen gas after the octanal had been introduced into the bottle.
Specifically, the color of a solution obtained by diluting 1 ml of a standard original color liquid (octanal) with water exactly to a volume of 100 ml is taken as APHA No. 5, and the APHA color number is increased by a multiple of 5 (as 10, 15, 20 . . . ) for every 1 ml increase of the original liquid.

skin of an albino rabbit = test: Primary irritation of the skin of an albino rabbit; type: in vivo; settings: 0.3 ml, intact and abraded area, 24 hours
Experimental: The primary irritation of the skin of an albino rabbit was determined by adhering 0.3 ml of a test agent on a lint cloth patch, applying the cloth to an intact area and an abraded area of the skin of the back of the albino rabbit, and evaluating the skin reactions at these two areas after a lapse of 24 hours. Then, an overall evaluation was made.

skin of a guinea pig = test: Cumulative irritation on the skin of a guinea pig; type: in vivo; settings: 0.3 ml three times at 24 hour intervals, intact skin
Experimental: The cumulative irritation on the skin of a guinea pig was evaluated by coating 0.3 ml of a test agent on intact skin of the guinea pig and judging the skin reaction after a lapse of 24 hours, then coating the test agent in an amount of 0.3 ml on the same site twice, each at 24 hour intervals, and judging the reaction of the skin after a lapse of 72 hours (after coating three times).

[2] = Acute oral toxicity (LD50); settings: for LD50: acute oral toxicity; for Acute toxicity compared with conventional perfume controlling agents: conclusion from Table 1
Pseudomonas aeruginosa = test: Microorganism assimilation; settings: for OD (turbidity): 660 nm; for Assimilation by microorganism: conclusion from Table 8
Experimental: 100 ml of the above liquid medium was placed in a 500 ml Sakaguchi flask, and sterilized at 120° C for 15 minutes in an autoclave in a customary manner. After cooling, the culture medium was inoculated with a prescribed amount of a suspension of the pre-cultured microorganism and cultivated at 30° C with shaking 120 times per minute.
Changes with time in the pH, turbidity, number of living cells were determined.
The turbidity was determined as follows: 2 ml of the culture broth was collected, and the precipitate was separated with a centrifugal separator. The precipitate was washed with acetone, and suspended in 2 ml of distilled water. The turbidity (OD) of the suspension at 660 nm was measured.

[3] = Fixing effect: HS-GC (II), analysis of volatilized portion after standing 15 minutes; type: physicochemical; settings: for Analysis of Volatilized Portion after Standing 15 Minutes (HS-GC (II) Method): controlling agent 15%, model perfume 5%
Experimental: (§1) Then, the fixing effect was evaluated by a second head space gas chromatographic (II) method (HS-GC (II)). Specifically, a perfume containing 0.7 g of a perfume controlling agent was coated on a sheet of paper having a predetermined thickness, area (11.5 × 7.5 cm), and weight (about 2.9 g). The coated paper was allowed to stand for 15 minutes in an open space in a room (6 × 4 × 2.5 m) maintained at a humidity of 50% at a ventilation rate of 1,500 m^3 /hr. The paper was then transferred into a 1,000 ml Erlenmeyer flask, and the flask was tightly sealed. After a lapse of 15 minutes, the volatilized portion was collected and analyzed by gas chromatography under the conditions shown Table A above. Furthermore, the residue on the paper was extracted with acetone, and analyzed by gas chromatography using conditions shown in Table B below.
(§2) The composition of the model perfume used was as follows:
Model Perfume: 5% by weight
95% Ethanol: 95% by weight
The composition of the perfume containing a perfume controlling agent was as follows:
Perfume Controlling Agent: 15% by weight
95% Ethanol: 80% by weight

[4] = Fixing effect: head space gas chromatographic (I) method (HS-GC (I)); type: physicochemical; settings: 35° C, 60 minutes
Experimental: A model perfume formulation was prepared using eight typical perfumes having different chemical structures, and the fixing effect of a perfume controlling agent was evaluated.
The fixing effect of the perfume controlling agent was determined using a head space gas chromatographic (I) method (to be abbreviated hereinafter as HS-GC (I) method). Specifically, 0.5 g of a perfume containing the perfume controlling agent was placed in an Erlenmeyer flask, and after sealing, the flask was allowed to stand at 35° C for 60 minutes.
Column: 3% polyethylene glycol having a molecular weight of about 20,000 on diatomaceous earth (2m)
Column Temperature: -40° C (5 minutes, isothermal) flushed to 80° C and then to 200° C (4° C/min.)
Injector Temperature: 250° C
Detector Temperature: 250° C
(§3) Detector: Flame Ionization Detector
(§4) Carrier Gas: He (40 ml/min.)

[5] = Fixing effect: analysis of residue on paper after standing 15 minutes; type: physicochemical
Experimental: as §1
Column: 5% FFAP (free fatty acid polyester; a trade name for a product of Nippon Chromato Co., Ltd.) on diatomaceous earth (2m)
Column Temperature: 80° C (5 minutes, isothermal) to 220° C (4° C/min.)
Injector Temperature: 260° C
Detector Temperature: 260° C
as §3, §4, §2
The values shown in Table 5 above were obtained by calculating the areas of the perfumes while the area of musk ketone measured by gas chromatography was taken as 1. (This calculating procedure was adopted because musk ketone has a high boiling point, and scarcely volatilizes at 30° C.)

## CC(C)CCOC(=O)CCCCC(=O)OCCC(C)C (single isomer, unassigned) [DIAA, diisoamyl adipate]
[1]
  APHA color of octanal: about 30 APHA
Skin of an albino rabbit
  Primary irritation of the skin: did not exhibit irritating effects
Skin of a guinea pig
  Cumulative irritation on the skin: did not exhibit irritating effects
[2]
  LD50: > 25 mL/kg
  Acute toxicity compared with conventional perfume controlling agents: equal to, or lower than, other conventional perfume controlling agents
Pseudomonas aeruginosa; 0 days elapsed
  pH: 6.90
Pseudomonas aeruginosa; 2 days elapsed
  Number of Living Cells: 1.6 × 10^6
  pH: 4.74
  OD (turbidity): 0.105
Pseudomonas aeruginosa; 7 days elapsed
  Number of Living Cells: < 10^2
  pH: 4.40
  OD (turbidity): 0.05
Pseudomonas aeruginosa; 14 days elapsed
  Number of Living Cells: < 10^2
  pH: 4.30
  OD (turbidity): 0.055
Pseudomonas aeruginosa
  Assimilation by microorganism: assimilated very well

## CC(C)COC(=O)CCCCC(=O)OCC(C)C [DIBA, diisobutyl adipate]
[3]; Citral (not present: 3.5%)
  Analysis of Volatilized Portion after Standing 15 Minutes (HS-GC (II) Method): 1.3%
[3]; Limonene (not present: 2.6%)
  Analysis of Volatilized Portion after Standing 15 Minutes (HS-GC (II) Method): 45.9%
[3]; Linalool (not present: 45.2%)
  Analysis of Volatilized Portion after Standing 15 Minutes (HS-GC (II) Method): 29.7%
[3]; Linalyl Acetate (not present: 39.0%)
  Analysis of Volatilized Portion after Standing 15 Minutes (HS-GC (II) Method): 16.4%
[3]; Musk ketone (not present: 0.0%)
  Analysis of Volatilized Portion after Standing 15 Minutes (HS-GC (II) Method): 0.0%
[3]; Pinene (not present: 0.2%)
  Analysis of Volatilized Portion after Standing 15 Minutes (HS-GC (II) Method): 2.4%
[3]; conclusion from Tables 3, 4 and 5
  Volatility and fixing ability: balanced volatility and fixing ability like DEP and BB
[1]
  APHA color of octanal: about 30 APHA
Skin of an albino rabbit
  Primary irritation of the skin: did not exhibit irritating effects
[4]; Benzyl Acetate, content 11.0% (alone 12.5%)
  Head Space Analysis of the Perfume after Adding 50% of DIBA: 12.6%
[4]; Geraniol, content 16.5% (alone 0.9%)
  Head Space Analysis of the Perfume after Adding 50% of DIBA: 0.5%
[4]; Lily Aldehyde, content 27.5% (alone 0.4%)
  Head Space Analysis of the Perfume after Adding 50% of DIBA: 0.2%
[4]; Limonene, content 5.5% (alone 53.4%)
  Head Space Analysis of the Perfume after Adding 50% of DIBA: 57.5%
[4]; Linalool, content 11.0% (alone 15.0%)
  Head Space Analysis of the Perfume after Adding 50% of DIBA: 12.8%
[4]; Linalyl Acetate, content 11.0% (alone 4.1%)
  Head Space Analysis of the Perfume after Adding 50% of DIBA: 0.1%
[4]; Nonanal, content 1.1% (alone […])
  Head Space Analysis of the Perfume after Adding 50% of DIBA: 2.1%
[4]; Rose P, content 16.5% (alone 5.1%)
  Head Space Analysis of the Perfume after Adding 50% of DIBA: 4.4%
Skin of a guinea pig
  Cumulative irritation on the skin: did not exhibit irritating effects
[5]; Citral (not present: 1.5), area of musk ketone taken as 1
  Analysis of Residue on Paper after Standing 15 Minutes (Area Ratio): 2
[5]; Limonene (not present: 0.3), area of musk ketone taken as 1
  Analysis of Residue on Paper after Standing 15 Minutes (Area Ratio): 0.6
[5]; Linalool (not present: 6.4), area of musk ketone taken as 1
  Analysis of Residue on Paper after Standing 15 Minutes (Area Ratio): 9.5
[5]; Linalyl Acetate (not present: 5.1), area of musk ketone taken as 1
  Analysis of Residue on Paper after Standing 15 Minutes (Area Ratio): 8.5
[5]; Musk Ketone (reference, taken as 1; not present: 1.0)
  Analysis of Residue on Paper after Standing 15 Minutes (Area Ratio): 1
[5]; Pinene (not present: 0.0), area of musk ketone taken as 1
  Analysis of Residue on Paper after Standing 15 Minutes (Area Ratio): 0
[2]
  LD50: 12.3 mL/kg
  Acute toxicity compared with conventional perfume controlling agents: equal to, or lower than, other conventional perfume controlling agents
Pseudomonas aeruginosa; 0 days elapsed
  pH: 6.94
Pseudomonas aeruginosa; 2 days elapsed
  Number of Living Cells: 2.3 × 10^7
  pH: 4.72
  OD (turbidity): 0.152
Pseudomonas aeruginosa; 7 days elapsed
  Number of Living Cells: 3 × 10^2
  pH: 4.42
  OD (turbidity): 0.13
Pseudomonas aeruginosa; 14 days elapsed
  Number of Living Cells: < 10^2
  pH: 4.40
  OD (turbidity): 0.115
Pseudomonas aeruginosa
  Assimilation by microorganism: assimilated very well

## CCCCCCCC=O [octanal]
[1]
  APHA color of octanal: > 300 APHA
